This is an account of results in article PMC10027881 (Scientific Reports, 2023).

Read-outs that look alike come from different tables or passages of the source.

The term bioavailability denotes dose-corrected exposure relative to a reference, in per cent.

Data set [1] is described as follows: UPLC-MS/MS levels of ginsenosides in blood/plasma and intestine after 20-weeks treatment. It is filed as in vivo, A/J mice. The settings on record: for concentration at 20 weeks: A/J, mouse. Here is the method: (§1) All experiments were approved by the laboratory animal ethics committee of Tongji Medical College, Huazhong University of Science and Technology (approval no. 2019; file no. 4587TH). All experiments were performed in accordance with relevant guidelines and regulations, and the study was conducted in accordance with Animal Research: Reporting of in vivo Experiments (ARRIVE) guidelines. Eight-week-old A/J mice were given an initial intraperitoneal injection of B(a)P in tricaprylin (100 mg/kg in 0.2 mL). One week later, the mice were randomly divided into control and different treatment groups with 15 mice per group, and treatment was performed once every day via oral gavage. Following 20 weeks of treatment, the animals were sacrificed by CO2 asphyxiation. The lungs were collected and fixed for 24 h. Quantification of the surface tumor count and individual tumor size on each lung was performed under a dissecting microscope. The tumor volume (V) estimation was calculated using the following expression: V (mm^3) = 4/3πr^3, where r is the tumor diameter. The net sum of all the volumes of tumors in a mouse lung was the total tumor volume, with the mean total tumor volume per group represented the tumor load. Whole blood and intestine samples were collected and stored at − 80 °C for UPLC‒MS/MS assays. Serum was collected and analyzed for alanine transaminase (ALT) and serum creatinine (Cr) levels by an automatic biochemical analyzer to evaluate liver and kidney function.
As described above, the collected samples were retrieved from cold storage, thawed, weighed, and placed in a test tube. To this, 0.5 µM phloridzin (internal standard) in 0.8 mL of methanol solution was added. Then, the tissue was homogenized using a Tissue-Tearor and the homogenate was subsequently transferred into a 1.5 mL microcentrifuge tube. The mixture was centrifuged for 15 min at 15,500 rpm. Following the removal of […] of the supernatant, nitrogen–based drying was performed. Two hundred microliters of methanol was used for reconstitution. Blood was collected and processed on the same lines and used as a reference for all measurements.

In data set [2] the test system is lung tumors induced by B(a)P in A/J mice. The data set can be described thus: B(a)P-induced lung tumorigenesis in A/J mice, tumor load. It is filed as in vivo. Conditions: G-Rg3 study, 20-weeks treatment; control 1.63 ± 0.40. Here is the method:
The mice were sacrificed by CO2 asphyxiation after the 20th week of red ginseng treatment.
as §1, with “All” for “All experiments were approved by the laboratory animal ethics committee of Tongji Medical College, Huazhong University of Science and Technology (approval no. 2019; file no. 4587TH). All”, “Eight-week-old A/J mice were given an initial intraperitoneal injection of B(a)P in tricaprylin (100 mg/kg in 0.2 mL).” left out

A further data set relates to Caco-2 monolayer. The data set can be described thus: Transcellular transport across the Caco-2 monolayer. The settings on record: for Pb-a compared with Pa-b: no verapamil. The data set is classed as in vitro ADME. The method, then: This assay was performed in accordance with an earlier study.
The cells were subjected to washing using HBSS and preincubation at 37 °C following 3 weeks of culture. […] Collection of 100 µL medium was performed at the indicated times (0, 15, 30, 45, 60, 90, and 120 min), and 100 µL HBSS was added to replenish this volume. These samples were stored at […] until UPLC‒MS/MS assays. The expression Papp = dQ/(dT × A × C0) was utilized to quantify the apparent unidirectional permeability for both the apical and basolateral sides and vice versa (Pa-b and Pb-a, respectively); dQ/dT represents the concentration change, A (0.6 cm^2) represents the monolayer surface area, and C0 represents the initial donor concentration. The efflux ratio was calculated as Pb-a/Pa-b, which represents the degree of efflux transport of the study drug.
Background: Caco-2 monolayers are a common model of the intestinal barrier.

In the next data set the test system is hEL cells. In words: Cell viability (MTS) assay. The data set is classed as cell-based, human. The settings on record: compound alone, 0-20 µM, 48 h.
Data set [3] concerns BPDE-DNA adducts in hEL cells. In words: BPDE-DNA adduct formation (ELISA kit). The data set is classed as cell-based, human. Conditions: for BPDE-DNA adduct level: 10 µM B(a)P cotreatment with 10 µM G-Rg3, 48 h; for BPDE-DNA adducts: B(a)P and G-Rg3 cotreatment. The method, then:
After treatment for 48 h, DNA was extracted from hEL cells using the QIAamp DNA Mini Kit according to the manufacturer’s protocol. BPDE-DNA adduct formation was detected using the BPDE-DNA adduct ELISA kit. The relative BPDE-DNA adduct levels were measured using a microplate reader for absorbance at 450 nm.
A general note: An ELISA detects its analyte on a solid surface through an enzyme-linked reagent.

In data set [4] the test system is GST. The data set can be described thus: GST expression by western blotting. The data set is classed as cell-based, human. The method, then: (§2) Caco2 and hEL cells were cultured in a 100 mm^2 cell culture dish with MEM containing 10% FBS at 37 °C in a humidified atmosphere of 5% CO2. To determine the effects of the treatment conditions, hEL cells were incubated with various concentrations of B(a)P and G-Rg3 in MEM for 48 h. The cells were subjected to further analysis or harvested to prepare cell-free extracts.
(§3) hEL cells were washed using ice-cold PBS and then lysed using radioimmunoprecipitation assay buffer containing a protease inhibitor and phosphatase inhibitors. After protein quantification using a total protein assay kit, 30 µg of protein from each sample was separated by 12% SDS‒PAGE and transferred electrophoretically onto the PVDF membrane. The membranes were blocked using 5% skim milk and then incubated with primary antibodies overnight at 4 °C. After incubation with horseradish peroxidase-conjugated secondary antibody, enhanced chemiluminescent reagent was added to visualize the binding signals. The intensity of each protein band was quantified using ImageJ software.
On the technique in general: A western blot detects proteins with antibodies after separation by electrophoresis.

The subject of data set [5] is GST. The data set can be described thus: GST activity assay kit. The data set is classed as cell-based, human. The method, then:
hEL cells were seeded in 96-well plates at a density of 1 × 10^4 cells per well and treated with 10 µM B(a)P in the absence or presence of 10 µM G-Rg3 for 48 h. GST activity was measured using a commercial GST activity assay kit according to the manufacturer’s protocols. The relative activation of GST was measured by using a microplate reader for absorbance at 450 nm.

A further data set deals with Nrf2. In words: Nrf2 expression by western blotting. The data set is classed as cell-based, human. The method, then:
as §2, §3

For data set [6] the following is noted: cited from earlier work.
The test system of the next data set is Caco-2 cells. Conditions: cited from earlier work.
The test system of data set [7] is rat pulmonary epithelial cells. Details: method as in PMID 17357179. Conditions: in the presence of verapamil; cited from earlier work.
Data set [8] can be described thus: Side effects in the model mice: body weight, plasma ALT and Cr. The data set is classed as in vivo, A/J mice. The settings on record: G-Rg3 treatment groups vs control group. The method, then:
as §1, with “All” for “All experiments were approved by the laboratory animal ethics committee of Tongji Medical College, Huazhong University of Science and Technology (approval no. 2019; file no. 4587TH). All”, “Eight-week-old A/J mice were given an initial intraperitoneal injection of B(a)P in tricaprylin (100 mg/kg in 0.2 mL).” left out

Where [9] appears, read: verapamil 50 or 100 µM vs no verapamil.
Where [10] appears, read: 10 µM B(a)P cotreatment with 10 µM G-Rg3.
The mark [11] stands for this setting: 10 µM B(a)P cotreatment with 10 µM G-Rg3, 48 h.

With `CC(C)=CC/C=C(\C)[C@H]1CC[C@]2(C)[C@@H]1[C@H](O)C[C@@H]1[C@@]3(C)CC[C@H](O[C@@H]4O[C@H](CO)[C@@H](O)[C@H](O)[C@H]4O[C@@H]4O[C@H](CO)[C@@H](O)[C@H](O)[C@H]4O)C(C)(C)[C@@H]3CC[C@]12C` [Rg5], the “ginsenoside in the blood” value in [1] (after 20-weeks KRGB treatment, oral) stood at 0.0063 ± 0.0005 µg/mL.

In turn, `CC(C)=CCCC(C)(O)C1CCC2(C)C1C(O)CC1C3(C)CCC(OC4OC(CO)C(O)C(O)C4OC4OC(CO)C(O)C(O)C4O)C(C)(C)C3CCC12C` (stereo not shown) [G-Rg3r, ginsenoside Rg3] yielded a tumor load in [2] of 0.75 ± 0.29 mm^3. For the same compound, the concentration at 20 weeks in [1] (intestine, oral, with verapamil coadministered (dose not stated), read-out: level in the intestine) is 1350 ± 130 ng/g; in data set [1] (intestine, oral, read-out: level in the intestine) it was 530 ± 80 ng/g; in [1] (plasma, oral, with verapamil coadministered (dose not stated), read-out: plasma level), 1170 ± 470 nM; in data set [1] (plasma, oral, read-out: plasma level), 440 ± 320 nM. The “Pa-b (apical to basolateral)” value with Caco-2 monolayer (10 µM G-Rg3, 50 µmol/L verapamil) was determined as 0.73 ± 0.06; in the data set on Caco-2 monolayer (10 µM G-Rg3, 100 µmol/L verapamil), 1.14 ± 0.09; with Caco-2 monolayer (10 µM G-Rg3, no verapamil), 0.38 ± 0.06. Further, the “Pb-a compared with Pa-b” value with Caco-2 monolayer is on record as “significantly higher”. The “average Pb-a after verapamil treatment” value in the data set with Caco-2 monolayer (setting [9]) was “significant decrease”. Besides, the “cytotoxicity on hEL cells” value in the data set on hEL cells is listed as “nontoxic”. The BPDE-DNA adduct level in data set [3] is on record as 1.87 ± 0.33. Further, the values for the BPDE-DNA adducts in data set [3] (control siRNA group) and in data set [3] (siNrf2 group) were 1.47 ± 0.21 and 3.0 ± 0.21, respectively. Moreover, in the data set on GST [4] (setting [10]), the GST expression turned out to be 103.7 ± 15.5%. Besides, in the data set with GST [5] (setting [11]), the GST activity is given as 96.3 ± 6.6%. In the data set on Nrf2 (B(a)P-G-Rg3 cotreatment), the “level of Nrf2” value is listed as 106 ± 9.5%.

On to `CC(C)=CCC[C@](C)(O)[C@H]1CC[C@]2(C)[C@@H]1[C@H](O)C[C@@H]1[C@@]3(C)CC[C@H](O[C@@H]4O[C@H](CO)[C@@H](O)[C@H](O)[C@H]4O)C(C)(C)[C@@H]3CC[C@]12C` [ginsenoside Rh2], for which the bioavailability in data set [6] (initial value, without cyclosporine A) is listed as 1%; in data set [6] (with cyclosporine A treatment) it was “more than 30%”.

Turning to `CC(C)=CCC[C@](C)(O[C@@H]1O[C@H](CO)[C@@H](O)[C@H](O)[C@H]1O)[C@H]1CC[C@]2(C)[C@@H]1[C@H](O)C[C@@H]1[C@@]3(C)CC[C@H](O)C(C)(C)[C@@H]3CC[C@]12C` [Compound K], the “intracellular levels spiked by a factor of” value in the data set with Caco-2 cells is 40.

Consider `CC(C)=CCC[C@](C)(O[C@@H]1O[C@H](CO)[C@@H](O)[C@H](O)[C@H]1O)[C@H]1CC[C@]2(C)[C@@H]1[C@H](O)C[C@@H]1[C@@]3(C)CC[C@H](O)C(C)(C)[C@@H]3[C@@H](O[C@@H]3O[C@H](CO)[C@@H](O)[C@H](O)[C@H]3O)C[C@]12C` [Rg1], for which, in [7], the “levels in rat pulmonary epithelial cells” value was “increased”.

With `CC(C)=CCCC(C)(O)C1CCC2(C)C1C(O)CC1C3(C)CCC(OC4OC(CO)C(O)C(O)C4OC4OC(CO)C(O)C(O)C4O)C(C)(C)C3CCC12C` (stereo not shown) [G-Rg3s, ginsenoside Rg3], the tumor load in [2] amounted to 0.81 ± 0.30 mm^3. For the same compound, the “plasma and intestine levels when verapamil was coadministered, in words” value in data set [1] (after 20-weeks treatment) was “followed a similar pattern”. The “Pb-a compared with Pa-b” value in the data set with Caco-2 monolayer is given as “significantly higher”. Moreover, the “average Pb-a after verapamil treatment” value in the data set with Caco-2 monolayer (setting [9]) is recorded as “significant decrease”. For the same compound, in the data set on Caco-2 monolayer (setting [9]), the “transport (Pa-b) after verapamil treatment, in words” value is “followed a similar pattern”. Besides, the “cytotoxicity on hEL cells” value in the data set with hEL cells is recorded as “nontoxic”. The BPDE-DNA adduct level in data set [3] worked out at 1.93 ± 0.48. Besides, the BPDE-DNA adducts was 1.8 ± 0.32 in [3] (control siRNA group) and 3.6 ± 0.45 in data set [3] (siNrf2 group). Further, the GST expression in the data set with GST [4] (setting [10]) stood at 110 ± 11.1%. In addition, in the data set on GST [5] (setting [11]), the GST activity amounted to 92.3 ± 6.5%. The “level of Nrf2” value with Nrf2 (B(a)P-G-Rg3 cotreatment) turned out to be 117 ± 6.2%.

As for `CC(C)=CCC[C@](C)(O)[C@H]1CC[C@]2(C)[C@@H]1[C@H](O)C[C@@H]1[C@@]3(C)CC[C@H](O[C@@H]4O[C@H](CO)[C@@H](O)[C@H](O)[C@H]4O[C@@H]4O[C@H](CO)[C@@H](O)[C@H](O)[C@H]4O)C(C)(C)[C@@H]3CC[C@]12C` [G-Rg3, ginsenoside Rg3], in [8], the “body weight loss or clinical signs of toxicity” value was “No significant body weight loss or clinical signs of toxicity”.

Turning to `c1ccc2c(c1)cc1ccc3cccc4ccc2c1c34` [B(a)P, benzo(a)pyrene, reference compound], the GST expression with GST [4] (10 µM B(a)P alone, G-Rg3r groups) came to 59.7 ± 8.2%; in the data set with GST [4] (10 µM B(a)P alone, G-Rg3s groups), 39 ± 4.5%. This compound also came in with a GST activity with GST [5] (10 µM B(a)P only, 48 h) of 35.7 ± 7.8%. In addition, the “level of Nrf2” value in the data set on Nrf2 (B(a)P only, G-Rg3r experiment) is given as 51.3 ± 6.8%; in the data set with Nrf2 (B(a)P only, G-Rg3s experiment) it was 41 ± 9.8%.
